# Source: publication PMC10518257 (Nature Cancer, 2023)
# Several values for one entry are separate records, joined by “and”; a condition that tells them apart may be missing. Equal entries are not always repeated.
# Key:
# [1] = test system: LUAD-0077AS1 PDX; test: PDX efficacy study; type: in vivo, NSG mice; parameters: Tumor volume: unit not given here; conditions: for Change in tumor volume (block without heading, Fig. 6b) / Tumor volume: LUAD-0077AS1, individual animals
# [2] = target: T1, panel of 255 (vepafestinib) or 256 (all other inhibitors) recombinant kinases (Homo sapiens, UniProt P16234); test: Kinase selectivity profiling at a single concentration (Carna Biosciences); type: biochemical; conditions: 17 nM
# T1 construct: purchased Carna Biosciences
# T1 sequence (P16234 24-1089): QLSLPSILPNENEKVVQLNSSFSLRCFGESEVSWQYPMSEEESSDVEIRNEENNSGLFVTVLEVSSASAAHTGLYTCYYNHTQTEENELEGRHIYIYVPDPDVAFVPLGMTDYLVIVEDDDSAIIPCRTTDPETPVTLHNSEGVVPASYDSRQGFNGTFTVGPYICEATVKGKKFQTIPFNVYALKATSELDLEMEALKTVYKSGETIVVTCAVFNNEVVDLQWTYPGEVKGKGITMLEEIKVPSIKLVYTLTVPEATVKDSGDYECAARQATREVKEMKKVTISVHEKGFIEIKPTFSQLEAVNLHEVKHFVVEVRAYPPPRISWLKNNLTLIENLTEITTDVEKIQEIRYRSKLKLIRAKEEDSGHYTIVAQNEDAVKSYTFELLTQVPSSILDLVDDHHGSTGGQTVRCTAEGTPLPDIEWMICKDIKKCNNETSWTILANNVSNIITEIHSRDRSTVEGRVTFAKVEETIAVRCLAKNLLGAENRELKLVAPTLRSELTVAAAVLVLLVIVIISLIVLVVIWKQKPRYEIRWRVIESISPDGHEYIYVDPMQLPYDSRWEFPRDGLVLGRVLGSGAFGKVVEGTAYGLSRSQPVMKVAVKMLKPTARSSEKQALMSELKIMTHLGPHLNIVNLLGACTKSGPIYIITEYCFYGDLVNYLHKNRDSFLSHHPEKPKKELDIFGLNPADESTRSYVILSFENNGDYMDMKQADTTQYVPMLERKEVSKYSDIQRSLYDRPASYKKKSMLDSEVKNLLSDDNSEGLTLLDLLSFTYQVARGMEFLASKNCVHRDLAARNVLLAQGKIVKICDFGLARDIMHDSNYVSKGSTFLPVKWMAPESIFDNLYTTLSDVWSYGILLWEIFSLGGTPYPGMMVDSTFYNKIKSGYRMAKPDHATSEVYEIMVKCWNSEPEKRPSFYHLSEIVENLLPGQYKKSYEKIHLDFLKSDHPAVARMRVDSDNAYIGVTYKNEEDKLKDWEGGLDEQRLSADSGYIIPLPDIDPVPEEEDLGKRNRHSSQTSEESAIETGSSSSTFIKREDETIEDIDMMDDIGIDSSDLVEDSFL
# [3] = target: T2, panel of 255 (vepafestinib) or 256 (all other inhibitors) recombinant kinases (Homo sapiens, UniProt P35916); test: as above; type: biochemical; conditions: 17 nM
# T2 construct: purchased Carna Biosciences
# T2 sequence (P35916 25-1363): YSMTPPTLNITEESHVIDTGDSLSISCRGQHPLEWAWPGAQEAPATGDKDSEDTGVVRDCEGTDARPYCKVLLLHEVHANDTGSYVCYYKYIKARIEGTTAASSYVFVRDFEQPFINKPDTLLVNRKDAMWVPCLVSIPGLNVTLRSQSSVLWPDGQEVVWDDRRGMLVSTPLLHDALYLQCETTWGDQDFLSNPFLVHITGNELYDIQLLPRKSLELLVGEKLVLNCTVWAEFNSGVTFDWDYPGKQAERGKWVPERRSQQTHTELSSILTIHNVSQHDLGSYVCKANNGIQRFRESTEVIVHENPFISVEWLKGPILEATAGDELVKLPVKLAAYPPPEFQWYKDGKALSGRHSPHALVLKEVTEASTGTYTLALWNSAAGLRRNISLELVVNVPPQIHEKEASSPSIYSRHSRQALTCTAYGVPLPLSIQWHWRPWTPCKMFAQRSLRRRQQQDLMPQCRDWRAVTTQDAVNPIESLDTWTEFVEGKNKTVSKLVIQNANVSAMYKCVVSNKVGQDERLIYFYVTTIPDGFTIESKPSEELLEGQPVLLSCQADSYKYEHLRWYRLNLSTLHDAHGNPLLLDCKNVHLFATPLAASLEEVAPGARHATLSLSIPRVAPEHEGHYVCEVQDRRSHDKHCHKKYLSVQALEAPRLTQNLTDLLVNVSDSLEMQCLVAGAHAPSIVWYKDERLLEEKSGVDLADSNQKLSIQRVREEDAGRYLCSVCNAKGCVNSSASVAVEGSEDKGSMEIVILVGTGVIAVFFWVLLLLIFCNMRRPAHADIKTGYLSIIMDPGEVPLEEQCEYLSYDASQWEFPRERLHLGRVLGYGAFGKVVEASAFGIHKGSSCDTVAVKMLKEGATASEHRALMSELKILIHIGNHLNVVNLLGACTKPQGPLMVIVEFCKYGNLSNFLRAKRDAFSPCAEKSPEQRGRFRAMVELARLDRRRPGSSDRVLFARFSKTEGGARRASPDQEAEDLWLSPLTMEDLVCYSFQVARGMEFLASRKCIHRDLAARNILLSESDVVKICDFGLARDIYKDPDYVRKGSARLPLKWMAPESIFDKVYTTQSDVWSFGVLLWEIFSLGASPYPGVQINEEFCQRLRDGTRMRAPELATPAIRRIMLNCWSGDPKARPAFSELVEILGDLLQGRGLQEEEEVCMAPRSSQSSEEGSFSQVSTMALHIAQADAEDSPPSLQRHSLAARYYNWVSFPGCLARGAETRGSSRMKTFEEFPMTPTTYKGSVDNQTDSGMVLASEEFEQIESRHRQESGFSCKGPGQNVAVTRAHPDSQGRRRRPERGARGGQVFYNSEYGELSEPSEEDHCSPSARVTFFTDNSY
# [4] = target: panel of 255 (vepafestinib) or 256 (all other inhibitors) recombinant kinases; test: as above; type: biochemical; conditions: 17 nM, 256 kinases
# [5] = test system: LUAD-0086AS3 cells; test: Growth inhibition (alamarBlue, 96 h); type: cell-based, human; conditions: for raw viability signal (Source Data Fig. 3b-c): LUAD-0086AS3 (n=1, 3 replicates)
# [6] = test system: Ba/F3 cells expressing KIF5B–RET^V804M; test: Growth inhibition assay in Ba/F3 cells (CellTiter-Glo, 72 h); type: cell-based; conditions: replicate sets
# [7] = test system: LUAD-0087AS2 PDX; test: PDX efficacy study; conditions: pralsetinib 30 mg/kg BID
# [8] = test system: phosphorylation of RET^G810R, RET^G810S and RET^G810C in Ba/F3 cells; test: Western blotting of RET phosphorylation in Ba/F3 KIF5B–RET cells; type: cell-based; conditions: 1 h, western blot
# [9] = test system: LUAD-0057BS1 cells; test: Growth inhibition (alamarBlue, 96 h); type: cell-based, human; conditions: for raw viability signal (Source Data Fig. 3b-c): LUAD-0057BS1, replicate sets
# [10] = Homo sapiens, 96 h, read-out: IC50 for Inhibition of Growth (95% CI)
structure (smiles),measurement,setting,value
CO[C@]1(C(=O)N[C@@H](C)c2ccc(-n3cc(F)cn3)nc2)CC[C@H](c2nc(C)cc(Nc3cc(C)[nH]n3)n2)CC1 [Pralsetinib],Area Under Curve Mean,"[1]; Fig. 6b LUAD-0077AS1 tumor growth, 30 mg/kg BID",-512.3
same,"Change in tumor volume (block without heading, Fig. 6b)",[1]; 15 mg/kg BID,31.8218 and 17.159 and 11.071 and 13.2706 and -8.805
same,Tumor volume,"[1]; 15 mg/kg BID, treatment day 0",88.7 (3×) and 87.11 (2×)
same,Tumor volume,"[1]; 15 mg/kg BID, treatment day 4",88.7 (4×) and 87.11
same,Tumor volume,"[1]; 15 mg/kg BID, treatment day 7",88.7 (2×) and 80.89 and 77.87 and 90.28
same,Tumor volume,"[1]; 15 mg/kg BID, treatment day 11",66.76 and 80.89 (2×) and 42.6 and 72.18
same,Tumor volume,"[1]; 15 mg/kg BID, treatment day 14",70.82 and 80.89 and 64.12 and 83.97 and 73.54
same,Tumor volume,"[1]; 15 mg/kg BID, treatment day 19",80.89 and 98.67 and 103.92 and 114.83 and 98.52
same,Tumor volume,"[1]; 15 mg/kg BID, treatment day 22",150.13 and 109.36 and 130.83 and 152.27 and 164.53
same,Tumor volume,"[1]; 15 mg/kg BID, treatment day 25",166.88 and 122.74 and 141.32 and 205.88 and 187.29
same,"Change in tumor volume (block without heading, Fig. 6b)",[1]; 30 mg/kg BID,-26.3021 and -30.7542 and -32.7343 and -33.6127 and -36.9233
same,Tumor volume,"[1]; 30 mg/kg BID, treatment day 0",88.7 and 87.11 (2×) and 82.36 (2×)
same,Tumor volume,"[1]; 30 mg/kg BID, treatment day 4",88.7 (2×) and 87.11 and 82.36 and 83.97
same,Tumor volume,"[1]; 30 mg/kg BID, treatment day 7",72.18 and 70.82 and 68.07 and 66.76 and 74.9
same,Tumor volume,"[1]; 30 mg/kg BID, treatment day 11",57.83 (2×) and 60.32 (2×) and 64.12
same,Tumor volume,"[1]; 30 mg/kg BID, treatment day 14",52.07 and 53.01 (2×) and 50.68 and 49.83
same,Tumor volume,"[1]; 30 mg/kg BID, treatment day 19",65.37 and 57.83 and 55.4 and 60.32 and 51.95
same,Tumor volume,"[1]; 30 mg/kg BID, treatment day 22",65.37 and 48.41 and 53.01 and 51.95 (2×)
same,Tumor volume,"[1]; 30 mg/kg BID, treatment day 25",65.37 and 83.97 and 60.32 and 53.01 and 55.4
same,% Inhibiton PDGFRα,[2],57.1%
same,% Inhibiton FLT4,[3],74%
same,kinases inhibited by >50%,[4],11
same,IC50,[5]; [10],121 nM
same,raw viability signal (Source Data Fig. 3b-c),[5]; 0.01 nM,31309.7 and 31098.7 and 34263.2
same,raw viability signal (Source Data Fig. 3b-c),[5]; 0.1 nM,29924.8 and 30921.2 and 29063.2
same,raw viability signal (Source Data Fig. 3b-c),[5]; 1 nM,27745.6 and 30045.6 and 27962.9
same,raw viability signal (Source Data Fig. 3b-c),[5]; 10 nM,27211.8 and 27719.7 and 26448.1
same,raw viability signal (Source Data Fig. 3b-c),[5]; 100 nM,16795 and 17102.3 and 12766
same,raw viability signal (Source Data Fig. 3b-c),[5]; 1000 nM,14016.5 and 12908.6 and 9876.85
same,raw viability signal (Source Data Fig. 3b-c),[5]; 10000 nM,5069.85 and 4707.96 and 4562.26
same,GI50,[6]; Ba/3-KIF5B-RET-V804M,7.93 nM and 8.94 nM
same,GI50,"[6]; Mus musculus, BaF3, Ba/3-KIF5B-RET-V804M",8.92 nM
same,Change in tumor volume (% from base line),"[7]; Fig. 6a LUAD-0087AS2, individual animals",-36.557% and -40.331% and -44.442% and -50.767%
same,Area Under Curve Mean,[7]; Fig. 6a LUAD-0087AS2 tumor growth,-1718
same,"block of phosphorylation of RET^G810R, RET^G810S or RET^G810C",[8],did not block
same,IC50,[9]; [10],36 nM
same,raw viability signal (Source Data Fig. 3b-c),[9]; 0.01 nM,16595.3 and 17181.3 and 21729.4
same,raw viability signal (Source Data Fig. 3b-c),[9]; 0.1 nM,16479.6 and 19958 and 20455.1
same,raw viability signal (Source Data Fig. 3b-c),[9]; 1 nM,16334.3 and 18804.2 and 20595.3
same,raw viability signal (Source Data Fig. 3b-c),[9]; 10 nM,13376 and 14580.9 and 14292.2
same,raw viability signal (Source Data Fig. 3b-c),[9]; 100 nM,5525.42 and 5782.49 and 4569.11
same,raw viability signal (Source Data Fig. 3b-c),[9]; 1000 nM,1800.25 and 2058.52 and 1619.82
same,raw viability signal (Source Data Fig. 3b-c),[9]; 10000 nM,968.48 and 1261.32 and 1236.21
